Drawing on ChEMBL document CHEMBL1144160, “Discovery and optimization of (R)-prolinol-derived agonists of the Growth Hormone Secretagogue receptor (GHSR)” (Bioorg Med Chem Lett, 2008), this text covers EC50, Activity and Ki for 56 compounds.

Some results are limits rather than exact numbers.

The target in test [1] is T1, Growth hormone secretagogue receptor type 1 (Homo sapiens, UniProt Q92847). In words: Agonist activity at GHSR. Format: functional.
The target in test [2] is T1, Growth hormone secretagogue receptor type 1. The test is described as follows: Agonist activity at GHSR relative to full agonist. Format: functional.
For test [3] the target is unchanged. In words: Binding affinity to GHSR.

T1 sequence (Q92847 whole entry): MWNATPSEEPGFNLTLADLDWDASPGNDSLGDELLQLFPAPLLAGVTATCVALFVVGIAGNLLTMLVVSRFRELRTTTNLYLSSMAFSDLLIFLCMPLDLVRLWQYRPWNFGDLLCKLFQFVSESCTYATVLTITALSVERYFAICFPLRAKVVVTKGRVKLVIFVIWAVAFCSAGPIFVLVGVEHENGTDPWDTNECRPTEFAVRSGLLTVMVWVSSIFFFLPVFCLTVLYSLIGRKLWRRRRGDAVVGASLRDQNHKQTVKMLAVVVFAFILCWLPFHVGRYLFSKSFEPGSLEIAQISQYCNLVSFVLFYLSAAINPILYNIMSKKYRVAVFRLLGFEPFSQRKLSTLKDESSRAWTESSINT

`Cc1ccccc1CN(C[C@H]1CCCN1)C(=O)[C@@H](C)Oc1cccc(Cl)c1` displayed an EC50 in test [1] of 180 nM. Moreover, the Activity in test [2] is 90%. In test [3], this compound had an inhibition constant (Ki) of 2200 nM.
In test [1], `CC(Oc1ccccc1Cl)C(=O)N(Cc1ccccc1Cl)C[C@H]1CCCN1` (stereo partly specified) gave a concentration giving a half-maximal response (EC50) of 260 nM. In test [2], the Activity turned out to be 60%.
With `CC(Oc1cccc(Cl)c1)C(=O)N(Cc1cccc(Cl)c1)C[C@H]1CCCN1` (stereo partly specified), in test [1], the EC50 stood at 20 nM. Also, the Activity in test [2] worked out at 70%.
`C[C@H](Oc1cccc(Cl)c1)C(=O)N(Cc1ccccc1)C[C@H]1CCCN1`: it took 4 nM to reach a half-maximal effect in test [1] (EC50). The Activity in test [2] came to 90%. Further, the Ki in test [3] came to 30 nM.
`CC(=O)Nc1ccc(N(C[C@H]2CCCN2)C(=O)C(C)Oc2ccccc2)cc1` (stereo partly specified): the EC50 in test [1] turned out to be 330 nM. This lies in the sub-micromolar range.
In test [1], `CC(Oc1cccc(Cl)c1)C(=O)N(C[C@H]1CCCN1)c1cccc(Cl)c1` (stereo partly specified) yielded an EC50 of 40 nM. The compound also came in with an Activity in test [2] of 110%.
For the compound `CC(Oc1cccc(Cl)c1)C(=O)N(Cc1ccccc1Cl)C[C@H]1CCCN1` (stereo partly specified), in test [1], the EC50 came out at 40 nM. The compound also showed an Activity in test [2] of 80%.
In turn, `COc1cccc(N(C[C@H]2CCCN2)C(=O)COc2ccccc2)c1` came in with a concentration giving a half-maximal response (EC50) in test [1] of over 10000 nM.
Take `CC(=O)Nc1ccc(N(C[C@H]2CCCN2)C(=O)C(C)Oc2cccc(Cl)c2)cc1` (stereo partly specified): the midpoint of the response in test [1], the EC50, lay at 30 nM. The Activity in test [2] amounted to 90%. In test [3], this compound came in with a Ki of 260 nM.
With `O=C(COc1ccccc1)N(Cc1ccccc1)C[C@H]1CCCN1`, in test [1], the EC50 was over 10000 nM.
In turn, `CC(Oc1cccc(Cl)c1)C(=O)N(Cc1ccccc1)C[C@H]1CCCN1` (stereo partly specified) showed an EC50 in test [1] of 7 nM. The compound further gave an Activity in test [2] of 80%. In addition, the Ki in test [3] was 300 nM.
`CC(Oc1cccc(Cl)c1)C(=O)N(Cc1ccc(Cl)cc1)C[C@H]1CCCN1` (stereo partly specified) returned an EC50 in test [1] of 30 nM. This compound also showed an Activity in test [2] of 90%.
Regarding `CC(=O)Nc1ccc(N(C[C@H]2CCCN2)C(=O)[C@@H](C)Oc2cccc(Cl)c2)cc1`, the EC50 in test [1] amounted to 1200 nM. For the same compound, the Activity in test [2] is 100%. The Ki in test [3] was at least 10000 nM.
For the compound `CC(=O)Nc1ccc(N(C[C@H]2CCCN2)C(=O)COc2ccccc2)cc1`, the EC50 in test [1] was found to be 2000 nM.
Consider `CC(Oc1ccccc1)C(=O)N(C[C@H]1CCCN1)c1ccc(CC#N)cc1` (stereo partly specified), for which the EC50 in test [1] was 9000 nM. Compared with the last compound, the EC50 is about 4.5-fold higher.
As for `Cc1ccccc1CN(C[C@H]1CCCN1)C(=O)[C@H](C)Oc1cccc(Cl)c1`, the midpoint of the response in test [1], the EC50, lay at 2 nM. In addition, in test [2], the Activity is 90%. In test [3], this compound returned a Ki of 30 nM.
In turn, `Cc1ccccc1CN(C[C@H]1CCCN1)C(=O)C(C)Oc1ccccc1Cl` (stereo partly specified) showed an EC50 in test [1] of 140 nM. The compound further returned an Activity in test [2] of 90%.
In test [1], `CSc1cccc(N(C[C@H]2CCCN2)C(=O)C(C)Oc2ccccc2)c1` (stereo partly specified) registered an EC50 of 2000 nM.
Compound `CC(Oc1ccccc1)C(=O)N(C[C@H]1CCCN1)c1cccc(Cl)c1` (stereo partly specified) yielded an EC50 in test [1] of 90 nM. This compound gave an Activity in test [2] of 110%.
`CC(=O)Nc1ccc(N(C[C@H]2CCCN2)C(=O)C(C)Oc2ccccc2Cl)cc1` (stereo partly specified): in test [1], the EC50 was 50 nM. The same compound yielded an Activity in test [2] of 90%.
As for `CC(Oc1ccccc1)C(=O)N(C[C@H]1CCCN1)c1ccc(Cl)cc1` (stereo partly specified), the EC50 in test [1] was 600 nM. This compound also came in with an Activity in test [2] of 80%.
As for `C[C@@H](Oc1cccc(Cl)c1)C(=O)N(Cc1ccccc1)C[C@H]1CCCN1`, the midpoint of the response in test [1], the EC50, lay at 1500 nM. Besides, the Activity in test [2] amounted to 100%. In test [3], the inhibition constant (Ki) is at least 10000 nM.
As for `CC(Oc1ccccc1Cl)C(=O)N(Cc1cccc(Cl)c1)C[C@H]1CCCN1` (stereo partly specified), the EC50 in test [1] amounted to 10 nM. The same compound yielded an Activity in test [2] of 90%.
Taken in the same sequence, the figures for `Cc1cccc(CN(C[C@H]2CCCN2)C(=O)C(C)Oc2ccccc2)c1` (stereo partly specified) were 80 nM and 90%.
On to `CC(Oc1ccccc1Cl)C(=O)N(Cc1ccccc1)C[C@H]1CCCN1` (stereo partly specified), for which the EC50 in test [1] amounted to 20 nM. The compound further registered an Activity in test [2] of 60%.
The compound `CCC(Oc1ccccc1)C(=O)N(C[C@H]1CCCN1)c1ccc(NC(C)=O)cc1` (stereo partly specified) displayed an EC50 in test [1] of 4000 nM.
Turning to `CC(Oc1cccc(Cl)c1)C(=O)N(C[C@H]1CCCN1)c1ccc(Cl)cc1` (stereo partly specified), in test [1], the EC50 was 120 nM. In test [2], this compound came in with an Activity of 90%.
Taken in the same sequence, the figures for `CC(Oc1cccc(Cl)c1)C(=O)N(C[C@H]1CCCN1)c1ccccc1Cl` (stereo partly specified) were 780 nM and 70%.
As for `Cc1cccc(CN(C[C@H]2CCCN2)C(=O)C(C)Oc2cccc(Cl)c2)c1` (stereo partly specified), a half-maximal response in test [1] (EC50) required 120 nM. This compound registered an Activity in test [2] of 20%.
`CC(Oc1ccccc1)C(=O)N(Cc1ccccc1Cl)C[C@H]1CCCN1` (stereo partly specified) returned an EC50 in test [1] of 150 nM. In test [2], this compound returned an Activity of 100%.
As to `CC(=O)Nc1ccc(N(C[C@H]2CCCN2)C(=O)[C@H](C)Oc2cccc(Cl)c2)cc1`, in test [1], the EC50 stood at 20 nM. The compound also displayed an Activity in test [2] of 100%. For the same compound, the Ki in test [3] is 250 nM.
`CCC(Oc1ccccc1)C(=O)N(C[C@H]1CCCN1)c1ccc(CC#N)cc1` (stereo partly specified) had an EC50 in test [1] of 14000 nM.
As to `CC(Oc1cccc(Cl)c1)C(=O)N(C[C@H]1CCCN1)c1ccccc1` (stereo partly specified), the response in test [1] was half-maximal at 120 nM (EC50). In test [2], this compound registered an Activity of 60%.
Compound `CCC(Oc1ccccc1)C(=O)N(C[C@H]1CCCN1)c1cccc(OC)c1` (stereo partly specified) came in with an EC50 in test [1] of over 10000 nM.
Consider `CC(Oc1ccccc1)C(=O)N(Cc1ccc(Cl)cc1)C[C@H]1CCCN1` (stereo partly specified), for which, in test [1], the EC50 came out at 220 nM. The Activity in test [2] was 80%.
Regarding `CC(=O)Nc1cccc(N(C[C@H]2CCCN2)C(=O)C(C)Oc2ccccc2)c1` (stereo partly specified), the response in test [1] was half-maximal at 1000 nM (EC50). The Activity in test [2] was 80%.
The compound `Cc1ccccc1CN(C[C@H]1CCCN1)C(=O)C(C)Oc1cccc(Cl)c1` (stereo partly specified) had an EC50 in test [1] of 3 nM. The compound also came in with an Activity in test [2] of 100%. Moreover, in test [3], the Ki amounted to 100 nM.
Consider `CC(Oc1ccccc1Cl)C(=O)N(C[C@H]1CCCN1)c1cccc(Cl)c1` (stereo partly specified), for which, in test [1], the EC50 was determined as 250 nM. In test [2], this compound yielded an Activity of 60%.
In test [1], `Cc1cccc(CN(C[C@H]2CCCN2)C(=O)C(C)Oc2ccccc2Cl)c1` (stereo partly specified) returned a concentration for a half-maximal effect (EC50) of 90 nM. The compound further gave an Activity in test [2] of 70%.
Taken in the same sequence, the figures for `CC(Oc1ccccc1)C(=O)N(Cc1cccc(Cl)c1)C[C@H]1CCCN1` (stereo partly specified) were 50 nM and 80%.
`COc1c(-c2ccccc2)cccc1N(C[C@H]1CCCN1)C(=O)COc1ccccc1` gave an EC50 in test [1] of 5000 nM.
In test [1], `CCC(Oc1ccccc1)C(=O)N(C[C@H]1CCCN1)c1cccc(SC)c1` (stereo partly specified) yielded an EC50 of over 10000 nM.
The compound `CC(Oc1ccccc1)C(=O)N(C[C@H]1CCCN1)c1ccccc1` (stereo partly specified) yielded an EC50 in test [1] of 440 nM.
For the compound `CC(=O)Nc1cccc(N(C[C@H]2CCCN2)C(=O)C(C)Oc2ccccc2Cl)c1` (stereo partly specified), a half-maximal effect in test [1] (EC50) was put at 200 nM. The compound further displayed an Activity in test [2] of 70%.
For `CCC(Oc1ccccc1)C(=O)N(C[C@H]1CCCN1)c1cccc(-c2ccccc2)c1OC` (stereo partly specified), the EC50 in test [1] stood at 2000 nM.
`CC(Oc1ccccc1)C(=O)N(C[C@H]1CCCN1)c1ccccc1Cl` (stereo partly specified) had an EC50 in test [1] of 1260 nM. Further, in test [2], the Activity came to 80%.
In the case of `O=C(COc1ccccc1)N(C[C@H]1CCCN1)c1ccccc1`, the EC50 in test [1] is over 10000 nM.
In test [1], `Cc1ccccc1CN(C[C@H]1CCCN1)C(=O)C(C)Oc1ccccc1` (stereo partly specified) came in with an EC50 of 40 nM. This compound also came in with an Activity in test [2] of 110%.
As to `CCC(Oc1ccccc1)C(=O)N(Cc1ccccc1)C[C@H]1CCCN1` (stereo partly specified), a half-maximal response in test [1] (EC50) required 900 nM.
In test [1], `CC(Oc1ccccc1Cl)C(=O)N(Cc1ccc(Cl)cc1)C[C@H]1CCCN1` (stereo partly specified) registered an EC50 of 60 nM. The Activity in test [2] was 80%.
In test [1], `CC(Oc1ccccc1Cl)C(=O)N(C[C@H]1CCCN1)c1ccccc1` (stereo partly specified) yielded an EC50 of at least 10000 nM.
`CC(Oc1ccccc1Cl)C(=O)N(C[C@H]1CCCN1)c1ccccc1Cl` (stereo partly specified) showed an EC50 in test [1] of at least 10000 nM.
Consider `COc1cccc(N(C[C@H]2CCCN2)C(=O)C(C)Oc2ccccc2)c1` (stereo partly specified), for which the EC50 in test [1] stood at 4000 nM.
The same measure, in the same setting: next, `CC(Oc1ccccc1Cl)C(=O)N(C[C@H]1CCCN1)c1ccc(Cl)cc1` (stereo partly specified): at least 10000 nM.
For the compound `CC(=O)Nc1cccc(N(C[C@H]2CCCN2)C(=O)C(C)Oc2cccc(Cl)c2)c1` (stereo partly specified), the EC50 in test [1] turned out to be 140 nM. In test [2], this compound came in with an Activity of 60%.
`CC(Oc1ccccc1)C(=O)N(Cc1ccccc1)C[C@H]1CCCN1` (stereo partly specified) had a half-maximal effective concentration (EC50) in test [1] of 90 nM.

The term EC50 denotes the midpoint of the concentration-response curve. In general, Ki refers to the equilibrium dissociation constant of an inhibitor or competing ligand from its target. Read a low Ki as tighter binding.
